Assay results from patent US8609870B2, “Treating various disorders using TrkB agonists” (Emory University, priority 2008, dated 2013).

Tests used:
TrkA = TrkA (Homo sapiens, UniProt P04629); experiment: [3H]-deoxygedunin ligand binding assay, TrkA
[1] = biological target: TrkB intra-cellular domain (ICD) (Homo sapiens, UniProt Q16620); experiment: [3H]-deoxygedunin ligand binding assay, TrkB ICD; settings: increasing concentrations of radioligand
Procedure: (§1) Purified TrkB ECD or ICD proteins (10 μg/each) were incubated with different [^3H-deoxygedunin] in 1 ml binding buffer (0.05 M Na/K phosphate buffer (pH 7.1), 200 mM NaCl) (1 nM [^3H]deoxygedunin˜82300 cpm) at 4° C. for 10 minutes. After incubation, the reaction mixture was loaded on filter paper and washed with 3×5 ml Tris buffer (100 mM Tris, pH 7.1). The dried filter paper was put into a small vial and subjected to liquid scintillation counter analysis. The value of the dissociation constant and the number of sites were obtained from Scatchard plots by using the equation r/[L]free=n/Kd−r/Kd, where r is the ratio of the concentration of bound ligand to the total protein concentration and n is the number of binding sites.
To determine whether an identified active compound physically and directly binds to the TrkB receptor, in vitro binding assays can be conducted with purified TrkB extracellular domain (ECD) and intracellular domain (ICD) recombinant proteins. Purified TrkB ECD and ICD (10 μg of each) are incubated with different concentrations of ^3H-labeled identified active compound in 1 ml of binding buffer (0.05M Na/K phosphate buffer, pH 7.1, 200 mM NaCl) at 4° C. for 10 minutes. After the incubation, the reaction mixture is loaded on filter paper. […]

[2] = biological target: TrkB extra-cellular domain (ECD) (Homo sapiens, UniProt Q16620); experiment: [3H]-deoxygedunin ligand binding assay, TrkB ECD (Scatchard plot); settings: increasing concentrations of radioligand
Procedure: as §1
To determine whether an identified active compound physically and directly binds to the TrkB receptor, in vitro binding assays can be conducted with purified TrkB extracellular domain (ECD) and intracellular domain (ICD) recombinant proteins. Purified TrkB ECD and ICD (10 μg of each) are incubated with different concentrations of ^3H-labeled identified active compound in 1 ml of binding buffer (0.05M Na/K phosphate buffer, pH 7.1, 200 mM NaCl) at 4° C. for 10 minutes. After the incubation, the reaction mixture is loaded on filter paper. The mixture is washed three times with Tris buffer (100 mM Tris, pH 7.1), and the dried filter paper is put into a small vial and subjected to liquid scintillation counter analysis. […] The value of the dissociate constant and the number of sites will then be obtained from Scatchard plots using the equation r/[L]free=n/Kd−r/Kd, where r is the ratio of the concentration of bound ligand to the total protein concentration and n is the number of binding sites.
To determine whether deoxygedunin binds the intra-cellular domain (ICD) or extra-cellular domain (ECD) of the TrkB receptor, ligand binding assays with [^3H]-deoxygedunin were performed. […] The coprecipitated HA-TrkB was also prominently tyrosine phosphorylated (see FIG. 14, 3rd panel).

TrkB = biological target: T1, TrkB (Homo sapiens, UniProt Q16620); experiment: TrkB dimerization assay (GST pull-down, transfected HEK293 cells); format: cell-based
T1 construct: expressed in transfected cells; host or cells: HEK293
Procedure: HEK293 cells transfected with GST-TrkB and HA-TrkA or TrkB were washed once in PBS, and lysed in 1 ml lysis buffer (50 mM Tris, pH 7.4, 150 mM NaCl, 1 mM EDTA, 0.5% Triton X-100, 1.5 mM Na3VO4, 50 mM NaF, 10 mM sodium pyrophosphate, 10 mM sodium β-glycerophosphate, 1 mM phenylmethylsulfonyl fluoride (PMSF), […], […] leupeptin, […] pepstatin A), and centrifuged for 10 minutes at 14,000×g at 4° C. The supernatant was then transferred to a fresh tube and transfected TrkB receptor was pulled down with glutathione beads. The coprecipitated proteins were resolved on SDS-PAGE. The samples were transferred to a nitrocellular membrane, and immunoblotting analysis was performed with a variety of antibodies.
BDNF is known to bind the TrkB receptor and provoke its dimerization (Barbacid, J. Neurobiol., 25:1386-1403, 1994; Klein et al, Cell, 66:395-403, 1991). To explore whether an identified active compound triggers TrkB receptor dimerization, HEK293 cells are cotransfected with GST-TrkB and HA-TrkB or HA-TrkA. The cells then are treated with BDNF or an identified active compound (0.5 μM) for 30 minutes. […]

hippocampal neurons [3] = experiment: Glutamate-triggered apoptosis in hippocampal neurons (MR(DEVD)2 / condensed nuclei); format: cell-based; settings: 0.5 μM preincubated 30 min, then 50 μM glutamate 16 h
Procedure: To create and test reporter cell lines. In order to identify small molecules that mimic BDNF and activate TrkB, TrkB stably transfected murine cell lines are created. The T48 and T62 cell lines are created by transfecting basal forebrain SN56 cells, which express negligible TrkB, with a TrkB expression construct. To test expression of TrkB, the cells are treated with BDNF, which is predicted to result in strong phosphorylation of Trk-490 and Akt activation in comparison to the TrkA NTR stably expressing T17 cell line indicating expression of TrkB. To test resistance to apoptosis, the SN56 cells and the T48 cell line are either untreated or treated with BDNF, and then are subjected to an apoptotic assay. The apoptotic assay involves treating the cells with 0.75 μM Staurosporine for 9 hours, and 1 hour before completing the experiment, the cells are treated with 10 μM MR (DEVD)2. The cells then are fixed with 4% paraformaldehyde for 15 minutes, washed with phosphate buffered saline (PBS), and incubated with Hoechst 33342 for 10 minutes. Cover slides are washed with PBS, mounted, and then the cells are examined using a fluorescent microscope to see which cells turn red upon caspase cleavage.
To compare the apoptosis inhibitory activity of identified active compounds, the compounds are preincubated with SN56 and T48 cells, and subsequently are subjected to the fluorescent apoptotic assay as described above. To examine whether these identified active compounds promote neuronal survival, hippocampal neurons are prepared and the cultures are pretreated with the identified active compounds for 30 minutes, followed by treatment with 50 μM glutamate for 16 hours.
Using a cell-based screen as described above in Example 1 (based on the anti-apoptotic action of TrkB signaling) and the chemical library from the Spectrum Collection (described above), 66 positive hits were generated, four of which were gedunin derivatives. […] In this assay, neurons with both cleaved caspase (MR (DEVD)2 red cells) and condensed nuclei (DAPI staining) were counted as apoptotic cells. […]

hippocampal neurons [4] = experiment: Oxygen-glucose deprivation (OGD) apoptosis in hippocampal neurons; format: cell-based; settings: apoptotic ratio compared to BDNF and DMSO

TrkB intra-cellular domain (ICD), sequence (Q16620 455-822 limits assumed): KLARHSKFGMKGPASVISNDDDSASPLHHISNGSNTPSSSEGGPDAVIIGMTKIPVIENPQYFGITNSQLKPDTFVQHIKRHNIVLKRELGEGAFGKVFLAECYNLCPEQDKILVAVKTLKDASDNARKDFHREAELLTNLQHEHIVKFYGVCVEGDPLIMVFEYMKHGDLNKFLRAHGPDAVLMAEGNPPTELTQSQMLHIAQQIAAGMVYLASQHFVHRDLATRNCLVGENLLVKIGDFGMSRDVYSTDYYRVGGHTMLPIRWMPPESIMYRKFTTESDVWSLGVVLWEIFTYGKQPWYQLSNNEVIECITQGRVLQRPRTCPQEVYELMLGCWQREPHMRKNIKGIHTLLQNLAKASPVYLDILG
TrkA, sequence (P04629 33-796, species assumed): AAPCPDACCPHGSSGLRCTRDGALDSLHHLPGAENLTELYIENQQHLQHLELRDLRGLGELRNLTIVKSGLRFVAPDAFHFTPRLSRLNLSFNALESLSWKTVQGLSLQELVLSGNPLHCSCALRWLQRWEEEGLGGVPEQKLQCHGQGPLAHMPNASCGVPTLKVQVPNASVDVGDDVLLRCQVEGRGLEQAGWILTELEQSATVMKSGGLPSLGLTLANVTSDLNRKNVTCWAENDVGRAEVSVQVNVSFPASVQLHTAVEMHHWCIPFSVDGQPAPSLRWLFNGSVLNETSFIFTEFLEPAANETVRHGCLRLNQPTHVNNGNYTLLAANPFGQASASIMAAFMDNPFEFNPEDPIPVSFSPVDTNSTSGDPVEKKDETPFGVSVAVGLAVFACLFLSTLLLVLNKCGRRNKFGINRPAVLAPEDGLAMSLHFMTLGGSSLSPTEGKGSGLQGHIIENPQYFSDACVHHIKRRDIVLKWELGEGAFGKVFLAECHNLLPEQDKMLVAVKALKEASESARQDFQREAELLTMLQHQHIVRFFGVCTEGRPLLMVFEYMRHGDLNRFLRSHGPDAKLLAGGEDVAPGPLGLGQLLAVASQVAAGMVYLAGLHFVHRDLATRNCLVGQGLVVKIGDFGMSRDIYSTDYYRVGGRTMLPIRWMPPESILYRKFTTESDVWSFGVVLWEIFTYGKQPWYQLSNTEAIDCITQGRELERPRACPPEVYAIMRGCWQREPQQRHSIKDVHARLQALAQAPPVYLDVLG
T1 sequence (Q16620 32-822, species assumed): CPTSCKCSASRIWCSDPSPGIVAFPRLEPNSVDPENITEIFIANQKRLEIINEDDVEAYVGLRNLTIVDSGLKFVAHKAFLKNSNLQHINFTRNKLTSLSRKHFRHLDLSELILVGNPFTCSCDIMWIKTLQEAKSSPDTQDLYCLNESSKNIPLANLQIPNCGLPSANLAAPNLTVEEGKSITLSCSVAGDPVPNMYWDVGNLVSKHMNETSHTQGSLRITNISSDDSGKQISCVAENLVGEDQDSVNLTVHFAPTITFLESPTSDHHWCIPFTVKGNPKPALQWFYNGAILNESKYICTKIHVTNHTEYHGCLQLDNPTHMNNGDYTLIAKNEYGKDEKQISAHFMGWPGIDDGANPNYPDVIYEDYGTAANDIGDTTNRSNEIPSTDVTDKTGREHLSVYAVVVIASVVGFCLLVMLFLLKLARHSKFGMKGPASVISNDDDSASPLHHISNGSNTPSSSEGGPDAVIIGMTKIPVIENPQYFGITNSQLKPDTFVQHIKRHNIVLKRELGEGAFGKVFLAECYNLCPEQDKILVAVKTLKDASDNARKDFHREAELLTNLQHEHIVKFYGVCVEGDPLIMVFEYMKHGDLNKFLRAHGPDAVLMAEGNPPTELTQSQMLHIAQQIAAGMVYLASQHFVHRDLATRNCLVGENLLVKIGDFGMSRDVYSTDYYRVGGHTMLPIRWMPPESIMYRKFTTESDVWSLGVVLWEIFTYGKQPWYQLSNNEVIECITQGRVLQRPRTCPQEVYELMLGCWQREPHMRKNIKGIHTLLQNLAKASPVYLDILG
T1 sequence (Q16620 32-822, species assumed): as above
TrkB extra-cellular domain (ECD), sequence (Q16620 32-430 limits assumed): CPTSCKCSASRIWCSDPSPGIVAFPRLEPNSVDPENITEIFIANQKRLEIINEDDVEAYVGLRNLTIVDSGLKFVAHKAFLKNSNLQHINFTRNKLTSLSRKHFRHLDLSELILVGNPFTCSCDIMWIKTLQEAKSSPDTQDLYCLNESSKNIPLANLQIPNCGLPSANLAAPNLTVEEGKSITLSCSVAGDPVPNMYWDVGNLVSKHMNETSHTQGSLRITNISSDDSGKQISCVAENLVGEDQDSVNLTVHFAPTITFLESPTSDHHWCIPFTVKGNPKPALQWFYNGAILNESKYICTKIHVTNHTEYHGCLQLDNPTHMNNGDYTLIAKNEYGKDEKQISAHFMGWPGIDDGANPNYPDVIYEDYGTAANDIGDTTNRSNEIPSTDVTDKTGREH

Compound	binding to TrkA (TrkA)	binding to TrkB ICD [1]	binding to TrkB ECD [2]	TrkB dimerization (TrkB)	protective effect (apoptosis inhibitory activity) (hippocampal neurons [3])	protective effects on hippocampal neurons under OGD (hippocampal neurons [4])
32-[^3H]3-deoxygedunin [[^3H]-deoxygedunin]	did not bind to TrkA	not the intra-cellular domain (ICD)	progressively bound			
CC(=O)O[C@@H]1CC2C(C)(C)[C@H](O)CC[C@]2(C)C2CC[C@@]3(C)[C@H](c4ccoc4)OC(=O)C4OC43[C@@]21C (stereo partly drawn) [alpha-dihydrogedunol (epoxy ring down), alphadihydrogedunol (epoxy ring down)]				notably promoted TrkB dimerization	protective effect	potent protective effects
